How the values were obtained:
Mu-type opioid receptor [1] = molecular target: T1, Mu-type opioid receptor (Rattus norvegicus, UniProt P33535); test: Agonist activity at rat mu opioid receptor expressed in rat C6 cells assessed as stimulation of [35S]-GTPgammaS binding after 1 hr by liquid scintillation counting analysis; type: functional, cell-based
[2] = molecular target: T2, Delta-type opioid receptor (Rattus norvegicus, UniProt P33533); test: Displacement of [3H]diprenorphine from rat delta opioid receptor expressed in rat C6 cell membranes after 1 hr by liquid scintillation counting analysis
T2 sequence (P33533 whole entry): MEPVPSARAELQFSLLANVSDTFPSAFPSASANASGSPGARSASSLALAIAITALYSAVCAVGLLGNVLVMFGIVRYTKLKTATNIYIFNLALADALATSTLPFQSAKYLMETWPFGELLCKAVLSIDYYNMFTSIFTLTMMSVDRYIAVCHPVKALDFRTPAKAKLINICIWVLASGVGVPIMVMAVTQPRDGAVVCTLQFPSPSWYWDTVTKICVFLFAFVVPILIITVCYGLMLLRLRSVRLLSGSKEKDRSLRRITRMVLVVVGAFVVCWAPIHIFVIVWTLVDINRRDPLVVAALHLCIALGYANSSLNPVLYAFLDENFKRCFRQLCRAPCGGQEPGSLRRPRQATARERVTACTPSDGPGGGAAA

Mu-type opioid receptor [3] = molecular target: T1, Mu-type opioid receptor; test: Displacement of [3H]diprenorphine from rat mu opioid receptor expressed in rat C6 cell membranes after 1 hr by liquid scintillation counting analysis
[4] = molecular target: Mu-type opioid receptor (Rattus norvegicus) (UniProt P33535); test: Agonist activity at rat mu opioid receptor expressed in rat C6 cells assessed as stimulation of [35S]-GTPgammaS binding at 10 uM after 1 hr by liquid scintillation counting analysis relative to DAMGO; type: functional, cell-based
Sequence of Mu-type opioid receptor (Rattus norvegicus) (P33535 whole entry): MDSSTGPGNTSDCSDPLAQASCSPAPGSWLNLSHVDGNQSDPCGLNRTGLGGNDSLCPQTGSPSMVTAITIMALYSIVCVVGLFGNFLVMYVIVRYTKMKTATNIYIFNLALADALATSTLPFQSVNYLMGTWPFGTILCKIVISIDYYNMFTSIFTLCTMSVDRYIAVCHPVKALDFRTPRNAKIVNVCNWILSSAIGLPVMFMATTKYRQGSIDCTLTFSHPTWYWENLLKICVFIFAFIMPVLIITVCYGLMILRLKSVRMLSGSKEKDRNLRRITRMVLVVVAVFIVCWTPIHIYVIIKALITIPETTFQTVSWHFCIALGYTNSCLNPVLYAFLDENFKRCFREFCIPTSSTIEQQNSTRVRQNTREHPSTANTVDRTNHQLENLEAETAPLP

[5] = molecular target: T2, Delta-type opioid receptor; test: Agonist activity at rat delta opioid receptor expressed in rat C6 cells assessed as stimulation of [35S]-GTPgammaS binding after 1 hr by liquid scintillation counting analysis; type: functional, cell-based
[6] = molecular target: T3, Kappa-type opioid receptor (Homo sapiens, UniProt P41145); test: Agonist activity at human kappa opioid receptor expressed in CHO cells assessed as stimulation of [35S]-GTPgammaS binding after 1 hr by liquid scintillation counting analysis; type: functional, cell-based
T3 sequence (P41145 whole entry): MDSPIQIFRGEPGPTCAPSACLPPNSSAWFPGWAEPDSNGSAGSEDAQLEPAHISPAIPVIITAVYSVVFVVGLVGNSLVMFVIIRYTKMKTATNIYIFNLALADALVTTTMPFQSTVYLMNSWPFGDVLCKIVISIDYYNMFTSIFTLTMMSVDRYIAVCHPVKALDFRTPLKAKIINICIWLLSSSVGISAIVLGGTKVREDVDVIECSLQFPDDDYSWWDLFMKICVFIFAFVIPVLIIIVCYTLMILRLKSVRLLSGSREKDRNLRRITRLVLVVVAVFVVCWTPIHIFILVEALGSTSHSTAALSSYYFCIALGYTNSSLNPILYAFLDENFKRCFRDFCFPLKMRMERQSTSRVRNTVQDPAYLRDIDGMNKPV

[7] = molecular target: T3, Kappa-type opioid receptor; test: Displacement of [3H]diprenorphine from human kappa opioid receptor expressed in CHO cell membranes after 1 hr by liquid scintillation counting analysis
[8] = molecular target: T3, Kappa-type opioid receptor; test: Agonist activity at human kappa opioid receptor expressed in CHO cells assessed as stimulation of [35S]-GTPgammaS binding at 10 uM after 1 hr by liquid scintillation counting analysis relative to U69,593; type: functional, cell-based
[9] = molecular target: Delta-type opioid receptor (Homo sapiens, UniProt P41143); test: Binding affinity to delta opioid receptor (unknown origin)
Sequence of Delta-type opioid receptor (Homo sapiens, UniProt P41143) (P41143 whole entry): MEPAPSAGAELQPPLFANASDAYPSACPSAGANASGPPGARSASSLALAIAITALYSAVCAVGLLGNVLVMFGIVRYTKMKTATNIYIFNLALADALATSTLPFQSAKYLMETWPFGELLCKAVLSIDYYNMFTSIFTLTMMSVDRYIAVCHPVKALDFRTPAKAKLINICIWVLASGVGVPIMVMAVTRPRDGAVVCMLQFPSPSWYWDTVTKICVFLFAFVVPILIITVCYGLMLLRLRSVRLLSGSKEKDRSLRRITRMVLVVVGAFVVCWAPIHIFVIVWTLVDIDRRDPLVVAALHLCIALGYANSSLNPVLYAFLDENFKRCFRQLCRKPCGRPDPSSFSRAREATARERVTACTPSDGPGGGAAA

[10] = molecular target: T3, Kappa-type opioid receptor; test: Binding affinity to kappa opioid receptor (unknown origin)
Mu-type opioid receptor [11] = molecular target: Mu-type opioid receptor (Homo sapiens, UniProt P35372); test: Binding affinity to mu opioid receptor (unknown origin)
Sequence of Mu-type opioid receptor (Homo sapiens, UniProt P35372) (P35372 whole entry): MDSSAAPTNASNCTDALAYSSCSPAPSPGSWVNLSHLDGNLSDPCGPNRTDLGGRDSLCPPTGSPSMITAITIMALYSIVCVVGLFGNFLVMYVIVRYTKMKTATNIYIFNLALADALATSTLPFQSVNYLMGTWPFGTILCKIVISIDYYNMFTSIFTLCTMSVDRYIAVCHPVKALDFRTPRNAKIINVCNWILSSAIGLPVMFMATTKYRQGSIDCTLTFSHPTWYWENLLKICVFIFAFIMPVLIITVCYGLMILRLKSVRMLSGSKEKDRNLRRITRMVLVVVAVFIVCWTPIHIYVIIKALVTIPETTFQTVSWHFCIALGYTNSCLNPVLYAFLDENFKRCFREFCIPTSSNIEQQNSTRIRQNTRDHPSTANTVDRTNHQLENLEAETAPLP

T1 sequence (P33535 whole entry): as the sequence (P33535 whole entry) above

| Structure (SMILES) | EC50 (Mu-type opioid receptor [1]; read-out: EC50) [nM] | Ki [2] [nM] | Ki (Mu-type opioid receptor [3]) [nM] | %max [4] [%] | EC50 [5] | EC50 (Mu-type opioid receptor [1]; c6) | EC50 ([6]; cho) | Ki [7] [nM] | EC50 ([6]; read-out: EC50) [nM] | %max [8] [%] | Ki [9] [nM] | Ki [10] [nM] | Ki (Mu-type opioid receptor [11]) [nM] |
| --- | --- | --- | --- | --- | --- | --- | --- | --- | --- | --- | --- | --- | --- |
| Cc1cc(O)cc(C)c1C[C@H](N)C(=O)N1CCN(C/C=C/Cc2ccccc2)CC1 | 20 | 23 | 0.29 | 36 | Not Active | – | – | – | – | – | – | – | – |
| Cc1cc(O)cc(C)c1C[C@H](N)C(=O)N1CCN(C/C=C/c2cccc3ccccc23)CC1 | – | – | – | – | Not Active | Not Active | Not Active | – | – | – | – | – | – |
| Cc1cc(O)cc(C)c1C[C@H](N)C(=O)N1CCC(Cc2ccccc2)CC1 | – | 7.8 | 1.4 | – | Not Active | Not Active | Not Active | 140 | – | – | – | – | – |
| Cc1cc(O)cc(C)c1C[C@H](N)C(=O)N1CCN(CCCCc2ccccc2)CC1 | 64 | 6.6 | 0.45 | 43 | Not Active | – | Not Active | 78 | – | – | – | – | – |
| Cc1cc(O)cc(C)c1C[C@H](N)C(=O)N1CCN(CCCc2ccccc2)CC1 | 150 | 36 | 3.8 | 23 | Not Active | – | Not Active | 250 | – | – | – | – | – |
| Cc1cc(O)cc(C)c1C[C@H](N)C(=O)N1CCN(CCC(c2ccccc2)c2ccccc2)CC1 | – | 21 | 1.1 | – | Not Active | Not Active | Not Active | 150 | – | – | – | – | – |
| Cc1cc(O)cc(C)c1C[C@H](N)C(=O)N1CCC(Cc2ccccc2)c2ccccc21 (stereo partly specified) | – | 14 | 29 | – | Not Active | Not Active | Not Active | 310 | – | – | – | – | – |
| Cc1cc(O)cc(C)c1C[C@H](N)C(=O)N1CCN(CCCc2cccc3ccccc23)CC1 | – | – | – | – | Not Active | – | Not Active | – | – | – | – | – | – |
| Cc1cc(O)cc(C)c1C[C@H](N)C(=O)N1CCC(CCCc2ccccc2)CC1 | 119 | 12 | 2 | 26 | Not Active | – | Not Active | 110 | – | – | – | – | – |
| Cc1cc(O)cc(C)c1C[C@H](N)C(=O)N1CCN(C/C=C\Cc2ccccc2)CC1 | 41 | 28 | 0.3 | 49 | Not Active | – | Not Active | – | – | – | – | – | – |
| Cc1cc(O)cc(C)c1C[C@H](N)C(=O)N1CCN(CCCCCc2ccccc2)CC1 | 53 | 6.9 | 0.42 | 42 | Not Active | – | – | 39 | 660 | 12 | – | – | – |
| Cc1cc(O)cc(C)c1C[C@H](N)C(=O)N1CCCc2ccccc21 | – | – | – | – | – | – | – | – | – | – | 33 | 36.5 | 25.8 |

— ChEMBL document CHEMBL3102699, “Synthesis and evaluation of 4-substituted piperidines and piperazines as balanced affinity μ opioid receptor (MOR) agonist/δ opioid receptor (DOR) antagonist ligands” (Bioorg Med Chem Lett, 2014)
